# How the values were obtained:
# Acarapis woodi [1] = assay: Package bee colonies infested with Acarapis woodi, mite survival; type: in vivo
# Experimental: (§1) Forty-two packages of honey bees (2 lbs.~907 g) are obtained from 22 colonies infested with Acarapis woodi. Infestations range from 60 to 100%. Each package is provided with a mated queen and 550 ml of treated or untreated 50% (wt/wt) sucrose syrup. All treated colonies receive syrup containing either 0.5 mg/ml (group B) or 1.0 mg/ml (group C) of 2-(2,4-dimethylphenylimino)-3-methyl-4-thiazoline hydrochloride. The control (group A) consists of 10 packages of bees and the treatment groups B and C of 16 packages each.
# (§2) After installation on frames free of nectar and pollen, package colonies are examined at weekly intervals to determine food consumption, brood production and bee mortality. Random samples of ten bees/colony are examined on days 5, 12, 19, 26, 33 and 40. On day 0 and 5 bees are examined. Dissections and live mite determinations are made according to Eischen et al. (Am. Bee J. 127: 99-101, 1987).
# honey bees = assay: Package bee colonies, brood production and food consumption; type: in vivo, honey bee; settings: 0.5 mg/ml and 1.0 mg/ml; more pronounced at the higher concentration
# Experimental: as §1, §2
# Acarapis woodi [2] = assay: Honey-bee colonies in northeastern Mexico, parasite load; type: in vivo; settings: 0.3 mg/ml in syrup, three times weekly, P<0.05
# Experimental: (§3) Three groups of honey-bee colonies (N=30) located in northeastern Mexico are selected on the basis of the prevalence of Acarapis woodi parasitizing their workers. Lightly (≤10%), moderately (20-60%), and heavily (90-100%) infested colonies are randomly assigned to control or treated subgroups (N=15). Controls receive 50% sucrose syrup, and treated colonies receive syrup medicated with 0.3 mg/ml 2-(2,4-dimethylphenylimino)-3-methyl-4-thiazoline-hydrochloride, small, medium, and large colonies receive 300, 600, and 1000 ml of syrup, respectively. Syrup is fed three times at weekly intervals.
# honey-bee colonies = assay: Honey-bee colonies in northeastern Mexico, bee population; type: in vivo; settings: end of the test; P<0.05
# Experimental: as §3
# Varroa jacobsoni [3] = assay: Comparative test, lethal dosage for varroa mites; type: in vivo; settings: for LD50 in μg active ingredient/bee: oral, 10 μl sucrose suspension
# From the text: Compounds (I), (A) and (B) are formulated in accordance with Example F-1.
# The age distribution of the bees in the test group is identical with that in a normal hive. The bees used in the laboratory tests originate from colonies only slightly infested with nosema. All groups of bees are infected with varroatosis (Varroa jacobsoni). To test the tolerance by the bees and the acaricidal activity in the group, 40 bees from the same colony are placed with their brood in each cage. To achieve a better control, each cage is fitted with a pane of glass. A small piece of honeycomb (6×8 cm) is attached at the top of each cage to pacify the bees. During the test period, the bees are kept in a climatic chamber at 25° C. and 85% relative humidity. These conditions are chosen because they are maximally acceptable both for the mites and the bees: the parasitizing mites are least affected and the bees live sufficiently long. To test the systemic activity of the active substance, 4 bees--within a group of 40 bees--are each individually fed with 10 μl of a suspension of the active substance in a 50% aqueous solution of sucrose. The bees have not been fed for at least one hour so that feed with a higher dose can be more readily ingested. 3 to 4 doses are tested in each of 2 groups. In each test series, 2 groups are left untreated as controls.
# 24 and 48 hours after treatment, the activity on varroa mites is determined on the basis of mite mortality. For this purpose a tray (mesh width=2.4 mm) is fixed above the floor of each of the test cages. The mites which have dropped off the bees can thus be collected on paper which had been placed under the tray. 72 hours after treatment, the bees are sacrificed and then washed in benzine to determine the number of mites which have remained on them (method of determining the number of remaining mites according to Ritter, Apidologie, 1980, 11(2), 131-141).
# Percentage mite mortality can be determined from the number of mites which have remained on the bees and the number which have dropped off. Using the Probit analysis (Cavalli-Sforza, Biometrie, G. Frischer Verlag, Stuttgart), the LD50 can be determined from the dosage-mortality curve.
# varroa mites [4] = assay: Feeding method in the laboratory, varroa mite mortality; type: in vivo; settings: 7 days
# Experimental: Thirty bees infested with varroa mites are each individually fed with 10 μl of a sugar-containing solution of 2-(2,4-dimethylphenylimino)-3-methylthiazoline. […] After being fed, the bees are kept in groups each of 10 for 7 days in cages. The mites which in the course of the test have fallen off dead are collected in trays placed under the individual cages. The bees are subsequently killed and are examined for remaining mites. The counting of the mites that have fallen down and those remaining on the bees is carried out after 7 days.
# varroa mites [5] = assay: Wetting method in the beehive, mites killed; type: in vivo; settings: 0.5% aqueous solution, 5 ml dropped, three times at 4-day intervals; 12 days
# Experimental: (§4) Six brood-less nuclei [small, manmade colonies of bees with usually 1000 to perhaps 5000 bees; see Morse and Hooper (1985), supra, Nucleus colony, p. 279] infested with varroa mites are treated three times, at intervals of 4 days, with a 0.5% aqueous solution of 2-(2,4-dimethylphenylimino)-3-methylthiazoline. The active substance is dissolved in the form of a concentrate formulation in water. 5 ml of the active substance solution are dropped onto a number of bees present in the bee ways of a beehive. The test is terminated 4 days after the last treatment, that is after a duration of 12 days. The mites and bees which have died in the course of the test are collected on a bottom tray covered with gauze, which has been inserted under the combs before commencement of the test. At the end of the test, the bees are killed, and the mites remaining on them are washed out in benzine and counted. For the evaluation, the number of dead mites and bees collected during the test is determined, the fact being taken into consideration that for the length of time of the test a natural mortality rate of about 0.5% of bees is to be expected.
# bees [6] = assay: Wetting method in the beehive, bees killed (tolerability); type: in vivo, honey bee
# Experimental: as §4
# bees [7] = assay: Tests under natural conditions, bee mortality rate; type: in vivo, honey bee; settings: overall; in the range of the untreated control group; 30240 min
# From the text: 33 brood-less bee colonies (~20,000 bees) infested with varroa mites are divided into three groups and treated with 2-(2,4-dimethylphenylimino)-3-methylthiazoline in solutions of varying concentration, originating in one case from a 15% emulsion concentrate (EC-15) and in the other case from a 15% water-soluble powder (SP-15). In the latter case, the active ingredient I is in the form of a salt (cf. Formulation Examples).
# All three groups A, B and C, each consisting of 11 colonies, receive during the time of treatment the same total amount of active ingredient.
# In the following the applied amounts per bee way are given. Depending on the size of the bee colony, a beehive contains between 5 and 15 bee ways, so that the amount of active ingredient applied is correspondingly adjusted from hive to hive.
# In each case 5 ml of a 4% aqueous solution or emulsion per bee way are sprayed onto a number of selected bees. The remaining bees provide for a uniform distribution of the active ingredient in the colony. The partial wetting procedure is repeated after 7 days and after 14 days (observation period 21 days). […]
# The mites and bees that have died during and after the treatment are collected daily from a bottom tray. 21 days after the first application, the bee colonies are killed and the remaining number of mites is then determined (observation period 21 days).
# Varroa jacobsoni [8] = settings: Thailand, 10 colonies each, four products; manufacturers' dose rates for Varroa-mite-treatment; cited from earlier work
# Tropilaelaps clareae = settings: Thailand, 10 colonies each, four products; dose rates proposed for Varroa-mite-treatment; cited from earlier work
smiles,measurement,setting,value
"Cc1ccc(N=c2sccn2C)c(C)c1.Cl [2-(2,4-dimethylphenylimino)-3-methyl-4-thiazoline hydrochloride]",time at which efficacy is apparent,Acarapis woodi [1]; 0.5 mg/ml and 1.0 mg/ml in syrup,7 days
same,control of mites,Acarapis woodi [1]; after 26 days,almost complete control of mites
same,Mite survival,"Acarapis woodi [1]; groups B (0.5 mg/ml) and C (1.0 mg/ml) in syrup, after 14 days",less than 1 live mite/trachea
same,live mites found in the tracheae of treated package bees,"Acarapis woodi [1]; groups B (0.5 mg/ml) and C (1.0 mg/ml), after 26 days",no live mites
same,effect on honey bee larvae (spotty brood patterns),honey bees,detrimental to some honey bee larvae as spotty brood patterns are observed in several colonies
same,parasite load score,"Acarapis woodi [2]; heavily infested (90-100%), control 1.13",0.63
same,parasite load score,"Acarapis woodi [2]; lightly infested (≤10%), control 2.25",0.53
same,parasite load score,"Acarapis woodi [2]; moderately infested (20-60%), control 3.43",0.84
same,bee population of medicated colonies versus controls,honey-bee colonies,significantly larger bee populations than controls
CCn1ccsc1=Nc1ccc(C)cc1C [Compound (A)],LD50 in μg active ingredient/bee,Varroa jacobsoni [3]; 24 hours after application,35 μg active ingredient/bee
same,LD50 in μg active ingredient/bee,Varroa jacobsoni [3]; 48 hours after application,35 μg active ingredient/bee
Cc1cccc(C)c1N=c1sccn1C [Compound (B)],LD50 in μg active ingredient/bee,Varroa jacobsoni [3]; 24 hours after application,28 μg active ingredient/bee
same,LD50 in μg active ingredient/bee,Varroa jacobsoni [3]; 48 hours after application,28 μg active ingredient/bee
"Cc1ccc(N=c2sccn2C)c(C)c1 [Compound (I), 2-(2,4-dimethylphenylimino)-3-methylthiazoline]",Fallen mites,"varroa mites [4]; 10 μl sugar solution fed per bee, 30 bees, total mites 35",34
same,Mortality rate in % (mites),varroa mites [4]; 10 μl sugar solution fed per bee,97%
same,killing of parasitizing mites,varroa mites [4]; feeding method in the laboratory,killing nearly all of the parasitizing mites
same,Killed organisms in %: mites,varroa mites [5],91.8%
same,Killed organisms in %: bees,"bees [6]; 0.5% aqueous solution, 5 ml dropped, three times at 4-day intervals, 12 days, natural mortality about 0.5% expected",0.4%
same,mortality of the bees during the test,bees [6]; compared with expected range and untreated control group,exactly within the expected range and does not differ from the mortality of the untreated control group
same,mortality of the treated bees,bees [7],about 1%
same,LD50 in μg active ingredient/bee,Varroa jacobsoni [3]; 24 hours after application,17 μg active ingredient/bee
same,LD50 in μg active ingredient/bee,Varroa jacobsoni [3]; 48 hours after application,13 μg active ingredient/bee
same,activity against varroa mites versus compounds (A) and (B),Varroa jacobsoni [3]; varroacidal test,significantly better activity against varroa mites
same,comparative efficacy against Varroa jacobsoni,Varroa jacobsoni [8],best product against both mites
same,comparative efficacy against Tropilaelaps clareae,Tropilaelaps clareae,best product against both mites

# — patent publication US4876265A, “Process and compositions for controlling mites parasitizing on honey bees” (priority 1983, dated 1989)
